In the NIST ThermoML archive (doi:10.1016/j.jct.2012.06.012):

Assay: xn = mol fraction of the nth substance listed
Details: Liquid, Vibrating tube method

CCCCCCCCCC [decane] + CCO
Details | mass density [kg/m3]
352.7 K, 1000 kPa, x2 = 0.1011 | 683.33
352.7 K, 2000 kPa, x2 = 0.1011 | 684.45
352.7 K, 3000 kPa, x2 = 0.1011 | 685.55
352.7 K, 4000 kPa, x2 = 0.1011 | 686.65
352.7 K, 5000 kPa, x2 = 0.1011 | 687.72
352.7 K, 6000 kPa, x2 = 0.1011 | 688.78
352.7 K, 7000 kPa, x2 = 0.1011 | 689.84
352.7 K, 8000 kPa, x2 = 0.1011 | 690.9
352.7 K, 9000 kPa, x2 = 0.1011 | 691.94
352.7 K, 10000 kPa, x2 = 0.1011 | 692.96
352.7 K, 11000 kPa, x2 = 0.1011 | 693.98
352.7 K, 12000 kPa, x2 = 0.1011 | 695
352.7 K, 13000 kPa, x2 = 0.1011 | 695.99
352.7 K, 14000 kPa, x2 = 0.1011 | 696.97
352.7 K, 15000 kPa, x2 = 0.1011 | 697.93
352.7 K, 16000 kPa, x2 = 0.1011 | 698.88
352.7 K, 17000 kPa, x2 = 0.1011 | 699.83
352.7 K, 18000 kPa, x2 = 0.1011 | 700.74
352.7 K, 19000 kPa, x2 = 0.1011 | 701.63
352.7 K, 20000 kPa, x2 = 0.1011 | 702.51
352.76 K, 1000 kPa, x2 = 0.7526 | 702.43
352.76 K, 2000 kPa, x2 = 0.7526 | 703.63
352.76 K, 3000 kPa, x2 = 0.7526 | 704.82
352.76 K, 4000 kPa, x2 = 0.7526 | 706.01
352.76 K, 5000 kPa, x2 = 0.7526 | 707.19
352.76 K, 6000 kPa, x2 = 0.7526 | 708.35
352.76 K, 7000 kPa, x2 = 0.7526 | 709.51
352.76 K, 8000 kPa, x2 = 0.7526 | 710.66
352.76 K, 9000 kPa, x2 = 0.7526 | 711.8
352.76 K, 10000 kPa, x2 = 0.7526 | 712.92
352.76 K, 11000 kPa, x2 = 0.7526 | 714.03
352.76 K, 12000 kPa, x2 = 0.7526 | 715.12
352.76 K, 13000 kPa, x2 = 0.7526 | 716.21
352.76 K, 14000 kPa, x2 = 0.7526 | 717.27
352.76 K, 15000 kPa, x2 = 0.7526 | 718.31
352.76 K, 16000 kPa, x2 = 0.7526 | 719.35
352.76 K, 17000 kPa, x2 = 0.7526 | 720.36
352.76 K, 18000 kPa, x2 = 0.7526 | 721.35
352.76 K, 19000 kPa, x2 = 0.7526 | 722.32
352.76 K, 20000 kPa, x2 = 0.7526 | 723.29
352.85 K, 1000 kPa, x2 = 0.2507 | 684.78
352.85 K, 2000 kPa, x2 = 0.2507 | 685.92
352.85 K, 3000 kPa, x2 = 0.2507 | 687.03
352.85 K, 4000 kPa, x2 = 0.2507 | 688.14
352.85 K, 5000 kPa, x2 = 0.2507 | 689.24
352.85 K, 6000 kPa, x2 = 0.2507 | 690.33
352.85 K, 7000 kPa, x2 = 0.2507 | 691.41
352.85 K, 8000 kPa, x2 = 0.2507 | 692.48
352.85 K, 9000 kPa, x2 = 0.2507 | 693.55
352.85 K, 10000 kPa, x2 = 0.2507 | 694.61
352.85 K, 11000 kPa, x2 = 0.2507 | 695.65
352.85 K, 12000 kPa, x2 = 0.2507 | 696.68
352.85 K, 13000 kPa, x2 = 0.2507 | 697.7
352.85 K, 14000 kPa, x2 = 0.2507 | 698.7
352.85 K, 15000 kPa, x2 = 0.2507 | 699.68
352.85 K, 16000 kPa, x2 = 0.2507 | 700.65
352.85 K, 17000 kPa, x2 = 0.2507 | 701.61
352.85 K, 18000 kPa, x2 = 0.2507 | 702.54
352.85 K, 19000 kPa, x2 = 0.2507 | 703.46
352.85 K, 20000 kPa, x2 = 0.2507 | 704.34
362.64 K, 1000 kPa, x2 = 0.1011 | 675.19
362.64 K, 1000 kPa, x2 = 0.4963 | 680.64
362.64 K, 1000 kPa, x2 = 0.9014 | 707.28
362.64 K, 2000 kPa, x2 = 0.1011 | 676.37
362.64 K, 2000 kPa, x2 = 0.4963 | 681.93
362.64 K, 2000 kPa, x2 = 0.9014 | 708.6
362.64 K, 3000 kPa, x2 = 0.1011 | 677.53
362.64 K, 3000 kPa, x2 = 0.4963 | 683.18
362.64 K, 3000 kPa, x2 = 0.9014 | 709.92
362.64 K, 4000 kPa, x2 = 0.1011 | 678.69
362.64 K, 4000 kPa, x2 = 0.4963 | 684.42
362.64 K, 4000 kPa, x2 = 0.9014 | 711.21
362.64 K, 5000 kPa, x2 = 0.1011 | 679.84
362.64 K, 5000 kPa, x2 = 0.4963 | 685.66
362.64 K, 5000 kPa, x2 = 0.9014 | 712.52
362.64 K, 6000 kPa, x2 = 0.1011 | 680.98
362.64 K, 6000 kPa, x2 = 0.4963 | 686.87
362.64 K, 6000 kPa, x2 = 0.9014 | 713.8
362.64 K, 7000 kPa, x2 = 0.1011 | 682.11
362.64 K, 7000 kPa, x2 = 0.4963 | 688.09
362.64 K, 7000 kPa, x2 = 0.9014 | 715.07
362.64 K, 8000 kPa, x2 = 0.1011 | 683.24
362.64 K, 8000 kPa, x2 = 0.4963 | 689.28
362.64 K, 8000 kPa, x2 = 0.9014 | 716.3
362.64 K, 9000 kPa, x2 = 0.1011 | 684.33
362.64 K, 9000 kPa, x2 = 0.4963 | 690.44
362.64 K, 9000 kPa, x2 = 0.9014 | 717.55
362.64 K, 10000 kPa, x2 = 0.1011 | 685.43
362.64 K, 10000 kPa, x2 = 0.4963 | 691.61
362.64 K, 10000 kPa, x2 = 0.9014 | 718.74
